Entries after “also recorded” stand apart in the source; their conditions may differ. Read-outs that look alike come from different tables or passages of the source.
Key:
[1] = test system: NO production in primary mouse macrophages; settings: cited from earlier work; for IC50: Table 1, stimulated with interferon-γ, compounds racemic
[2] = test system: NO production in RAW cells; test: Inhibition of NO production in RAW cells stimulated with interferon-γ; assay type: cell-based, mouse; settings: for IC50: read-out: IC50 (nM), NO production in RAW cells
[3] = test system: NO production in RAW cells; settings: Honda et al., 2000, 2002; cited from earlier work
[4] = test system: MCF-7 mouse breast cancer cell lines; settings: Honda et al., 2003; cited from earlier work
iNOS = test: Inhibition of iNOS induction in RAW cells stimulated with IFN-γ (Western blot); assay type: cell-based, mouse; settings: FIG. 10; 30-300 nM, IFNγ 10 ng/ml, 24 hours
HO-1 = test: Induction of HO-1 in RAW cells (Western blot); assay type: cell-based, mouse; settings: FIG. 9; 30-300 nM, 24 hours
heme oxygenase-1 = test: Induction of heme oxygenase-1 in liver of CD-1 mice after gavage; assay type: in vivo; settings: FIG. 3; CD-1 mice, gavage in DMSO, livers after 6 h
Method: FIG. 3. […] CD-1 mice (2 per group) were gavaged with TBEs or CDDO-Im in DMSO. After 6 h, livers were harvested and homogenized. Lysates were separated by SDS-PAGE, probed with HO-1 antibodies, and developed by ECL.
FIG. 11. […] Male CD-1 mice (3 per group) were gavaged with 1 μmol TBEs, CDDO or CDDO-Im in DMSO. Six hours later, livers were harvested and homogenized. Lysates were separated by SDS-PAGE, probed with HO-1 antibodies, and developed by ECL.
CD-1 mice (2 per group) were gavaged with TBEs or CDDO-Im in DMSO. After 6 h, livers were harvested and homogenized. Lysates were separated by SDS-PAGE, probed with HO-1 antibodies, and developed by ECL.

[5] = Mus musculus, Table 5, C-8a functionalized TBE-9 analogs, stimulated with interferon-γ
[6] = Mus musculus, Table 6, optically active TBE-31 and 34, stimulated with interferon-7

CC(=O)O[C@@H]1CC(=O)C=C2[C@@]3(C)C=C(C#N)C(=O)C(C)(C)[C@@H]3CC[C@]21C [TBE-3]
IC50 [1]: 53 nM

C[C@]12CCC(=O)C=C1CC[C@@H]1[C@@H]2[C@@H](O)C[C@@]2(C)[C@H]1CC[C@]2(O)C(=O)CO [hydrocortisone, reference compound]
IC50 ([2]; Mus musculus, Table 4, C-8a functionalized TBE-10 analogs, stimulated with interferon-γ): 61 nM | IC50 [1]: 10 nM

COC(=O)[C@]12CCC(C)(C)C[C@H]1C1C(=O)C=C3[C@@]4(C)C=C(C(=O)O)C(=O)C(C)(C)[C@@H]4CC[C@@]3(C)[C@]1(C)CC2 (stereo partly shown) [TP-190, reference compound]
Inhibition of NO production in mouse macrophages (in words) ([1]; Honda et al., 2000, 2002): potent inhibitors of NO production | Inhibition of NO production in RAW cells (in words) [3]: potent inhibitors of NO production

CC1(C)C(=O)C(C#N)=C[C@]2(C)C3=CC(=O)C(C#N)=C[C@]3(C)CC[C@@H]12 [(−)-TBE-9]
Activity against MCF-7 mouse breast cancer cell lines [4]: active

CC1(C)CC[C@]2(C#N)CC[C@]3(C)[C@H](C(=O)C=C4[C@@]5(C)C=C(C#N)C(=O)C(C)(C)[C@@H]5CC[C@]43C)[C@@H]2C1 [TP-225, reference compound]
IC50 [2, 5]: 1 nM

CC1(C)C(=O)C(C#N)=C[C@]2(C)C3=CC(=O)C=C[C@]3(C)CC[C@@H]12 [TBE-5]
IC50 [1]: 61 nM

CC1(C)C(=O)C(C#N)=CC2(C)C3=CC(=O)C(C#N)=CC3(C#C[Si](C)(C)C)CCC12 (single isomer, unassigned; (-)) [(−)-TBE-34]
IC50 ([2]; Table 6, optically active TBE-31 and 34, stimulated with interferon-7): 3 nM

CC1(C)CC[C@]2(C(=O)O)CC[C@]3(C)[C@H](C(=O)C=C4[C@@]5(C)C=C(C#N)C(=O)C(C)(C)[C@@H]5CC[C@]43C)[C@@H]2C1 [CDDO, 2-cyano-3,12-dioxooleana-1,9(11)-dien-28-oic acid, reference compound]
IC50 ([2]; Table 4, C-8a functionalized TBE-10 analogs, stimulated with interferon-γ): 6 nM | IC50 ([2]; Table 5, C-8a functionalized TBE-9 analogs, stimulated with interferon-γ): 20 nM | IC50 [1]: 0.5 nM

CC#CC12C=C(C#N)C(=O)C=C1C1(C)C=C(C#N)C(=O)C(C)(C)C1CC2 (stereo not shown) [TBE-35]
IC50 [2, 5]: 5 nM

C#C[C@@]12C=C(C#N)C(=O)C=C1[C@@]1(C)C=C(C#N)C(=O)C(C)(C)[C@H]1CC2 [(+)-TBE-31, (+)-(4bS,8aS,10aR)-10a-ethynyl-4b,8,8-trimethyl-3,7-dioxo-3,4b,7,8,8a,9,10,10a-octahydrophenanthrene-2,6-dicarbonitrile]
IC50 [2, 6]: 1 nM

CC1(C)C(=O)C(C#N)=C[C@]2(C)C3=CC(=O)C[C@@H](O)[C@]3(C)CC[C@@H]12 [TBE-4]
IC50 [1]: 75 nM

C#CC#CC12C=C(C#N)C(=O)C=C1C1(C)C=C(C#N)C(=O)C(C)(C)C1CC2 (stereo not shown) [TBE-39]
IC50 [2, 5]: 3 nM | Potency for inhibition of NO production in RAW cells (in words) ([2]; RAW cells, interferon-γ): nearly equivalent potency to that of TBE-31

CC1(C)C(=O)C(C#N)=CC2(C)C3=CC(=O)C(C#N)=CC3(C#CC#N)CCC12 (stereo not shown) [TBE-38]
IC50 [2, 5]: 4 nM

CC1(C)C(=O)C(C#N)=CC2(C)C3=CC(=O)C(C#N)=CC3(C#C[Si](C)(C)C)CCC12 (stereo not shown) [TBE-34]
Inhibition of induction of iNOS in RAW cells stimulated with IFNγ (iNOS): nearly equivalent in potency to TBE-31; also recorded: nearly equivalent in potency to both compounds | Potency for inhibition of NO production in RAW cells (in words) [2]: nearly equivalent potency to that of TBE-31 | IC50 ([2]; Mus musculus): 3 nM | Induction of HO-1 in RAW cells (HO-1): nearly equivalent in potency to TBE-31

CC(=O)O[C@@H]1CCC=C2[C@@]3(C)C=C(C#N)C(=O)C(C)(C)[C@@H]3CC[C@]21C [TBE-2]
IC50 [1]: 480 nM

CCC#CC12C=C(C#N)C(=O)C=C1C1(C)C=C(C#N)C(=O)C(C)(C)C1CC2 (stereo not shown) [TBE-36]
IC50 [2, 5]: 20 nM

CC1(C)CC[C@]2(C(=O)O)CC[C@]3(C)C(=CC[C@@H]4[C@@]5(C)CC[C@H](O)C(C)(C)[C@@H]5CC[C@]43C)[C@@H]2C1 [Oleanolic acid, reference compound]
IC50 [1]: > 40000 nM

C#C[C@]12C=C(C#N)C(=O)C=C1[C@@]1(C)C=C(C#N)C(=O)C(C)(C)[C@@H]1CC2 [(−)-TBE-31]
IC50 [2, 6]: 3 nM

CC1(C)CC[C@]2(C(=O)n3ccnc3)CC[C@]3(C)[C@H](C(=O)C=C4[C@@]5(C)C=C(C#N)C(=O)C(C)(C)[C@@H]5CC[C@]43C)[C@@H]2C1 [CDDO-Im, 1-[2-cyano-3-,12-dioxooleana-1,9(11)-dien-28-oyl]imidazole, reference compound]
Induction of heme oxygenase-1 in liver in vivo (heme oxygenase-1): very potent triterpenoid agent for induction of heme oxygenase-1 | Induction of HO-1 in RAW cells (HO-1): most potent compound amongst semi-synthetic triterpenoid analogues in this assay

Reference: US8067394B2, “Synthesis and biological activities of new tricyclic-bis-enones (TBEs)” (Trustees of Dartmouth College, priority 2006, dated 2011)
